# Source: US8153410B2, “Alternate morpheein forms of allosteric proteins as a target for the development of bioactive molecules” (Fox Chase Cancer Center, priority 2003, dated 2012)
# Like-named read-outs stand apart in the source and are kept apart here.
# How the values were obtained:
# pea PBGS = biological target: T1, pea PBGS (Pisum sativum, UniProt P30124, C394A); assay: native PAGE gel shift of pea PBGS octamer/hexamer equilibrium; format: biochemical
# T1 construct: made in house
# Protocol: FIG. 32(a) The inhibitor morphlock-1 is illustrated as posed by Glide. The subunits A, B, and E are illustrated as ribbon diagram. Morphlock-1 is shown with carbon atoms and illustrated as ball and stick. FIG. 32(b) The chemical structure of morphlock-1. […] Pea PBGS was incubated with various concentrations of morphlock-1 (in a DMSO solution). Each concentration of morphlock-1 with a fixed amount of DMSO was incubated with protein for 30 minutes at 37° C. prior to resolution on 12.5% polyacrylamide native PhastGels. […] (d) The protein concentration dependence of pea PBGS specific activity is illustrated. PBGS (at varied concentrations) was incubated in the presence of DMSO (●) or 50 μM morphlock-1 in DMSO (∘) for 30 minutes at 37° C. prior to assay. The final concentration of morphlock-1 in the inhibited assay was 5 μM, and the concentration of PBGS in the inhibited and control assays ranged from 0.05-50 μg/mL (0.014-1.4 μM).
# FIG. 34(b) Hexameric pea PBGS (1 mg/mL, prepared by dialysis against low ionic strength) was incubated with DMSO (left) or 500 μM morphlock-1 (right) for 30 minutes at 37° C. ALA was added at the indicated concentrations, and the incubation was continued for 30 minutes prior to resolution on 12.5% polyacrylamide native PhastGels. […] Morphlock-1 concentrations are listed at the top of each lane. Protein samples for left-most gel were at 50 μg/ml (1.4 μM subunit) and 1 mM ALA; protein detection is by silver staining. Samples for the middle gel were also at 50 μg/ml (1.4 μM subunit) and 1 mM ALA; the gel was activity stained. Samples for the right-most gel were at 5 μg/ml (0.14 μM subunit) and 10 mM magnesium; protein detection is by Krypton Infrared staining.
# FIG. 41 illustrates native PAGE screening of compounds. Octameric PBGS (1 mg/mL) was incubated with DMSO or 2 mM of each compound for 30 minutes at 37° C. prior to resolution on 12.5% polyacrylamide native PhastGels. […] Each compound is identified by its box address. The compound B6 is morphlock-1.
# The interconversion of pea PBGS hexamer and octamer is a dynamic equilibrium that responds to protein concentration, substrate concentration, magnesium concentration, inhibitor concentration, and ionic strength.
# V. cholerae PBGS = assay: native PAGE gel shift of V. cholerae PBGS; format: biochemical; conditions: V. cholerae PBGS ~1 mg/ml
# Protocol: (§1) FIG. 33 illustrates the species-specific effects of morphlock-1 on PBGS—FIG. 33(a) Dose-response curves showing morphlock-1 inhibition of pea PBGS at 1 μg/ml (∘) and human PBGS at 0.6 μg/ml (Δ) and 10 μg/ml (□). The proteins were incubated in the presence of 10× inhibitor for 30 minutes at 37° C. prior to assay. The concentrations on the X-axis represent the final concentration of morphlock-1 in the assay. FIG. 33(b). The IC50 for morphlock-1 is a function of pea PBGS concentration. IC50 values were determined as per part (a) using the noted concentrations of pea PBGS. (c) Native PAGE evaluation of the effect of morphlock-1 on the quaternary structure equilibria of PBGS (˜1 mg/ml) from D. melanogaster, P. aeruginosa, V. cholerae, and H. sapiens. Note that the charge/mass ratio is not the same for PBGS from different species.
# (§2) The putative morphlock-1 binding site is phylogenetically variable (see below). As such, morphlock-1 would not be expected to inhibit human PBGS. The effect of morphlock-1 on the activity of human PBGS was also determined at the midpoint of the protein concentration-dependent specific activity. […] To further establish the species-selectivity of morphlock-1, the gel shift assay was also carried out for PBGS from P. aeruginosa, and V. cholerae.
# human PBGS [1] = biological target: T2, human PBGS (Homo sapiens, UniProt P13716); assay: human PBGS activity assay with morphlock-1; format: biochemical
# T2 sequence (P13716 1-330): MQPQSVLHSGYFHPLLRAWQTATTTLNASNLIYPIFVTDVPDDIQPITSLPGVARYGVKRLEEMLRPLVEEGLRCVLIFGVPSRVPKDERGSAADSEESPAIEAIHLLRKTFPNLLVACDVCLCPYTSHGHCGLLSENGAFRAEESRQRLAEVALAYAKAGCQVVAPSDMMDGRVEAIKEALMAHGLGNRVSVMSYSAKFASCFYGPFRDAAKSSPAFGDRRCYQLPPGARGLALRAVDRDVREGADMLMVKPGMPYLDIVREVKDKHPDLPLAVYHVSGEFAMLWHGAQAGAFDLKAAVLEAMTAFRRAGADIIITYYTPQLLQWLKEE
# Protocol: as §1, §2
# human PBGS [2] = biological target: T2, human PBGS; assay: native PAGE gel shift of human PBGS; format: biochemical, H. sapiens
# Protocol: as §1, §2
# P. aeruginosa PBGS = P. aeruginosa PBGS (Pseudomonas aeruginosa, UniProt Q59643); assay: native PAGE gel shift of P. aeruginosa PBGS; format: biochemical; conditions: P. aeruginosa PBGS ~1 mg/ml
# Protocol: as §1, §2
# T1 sequence (P30124 69-398 C394A): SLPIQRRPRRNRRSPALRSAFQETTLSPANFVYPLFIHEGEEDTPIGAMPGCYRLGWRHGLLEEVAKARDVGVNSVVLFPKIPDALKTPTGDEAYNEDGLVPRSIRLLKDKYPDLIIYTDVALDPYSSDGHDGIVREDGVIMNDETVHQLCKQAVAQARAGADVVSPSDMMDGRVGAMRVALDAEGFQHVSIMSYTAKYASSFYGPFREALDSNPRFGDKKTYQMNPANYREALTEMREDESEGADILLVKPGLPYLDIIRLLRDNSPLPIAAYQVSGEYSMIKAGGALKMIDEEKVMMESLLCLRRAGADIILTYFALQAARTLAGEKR
# Chain of P. aeruginosa PBGS (Q59643 whole entry): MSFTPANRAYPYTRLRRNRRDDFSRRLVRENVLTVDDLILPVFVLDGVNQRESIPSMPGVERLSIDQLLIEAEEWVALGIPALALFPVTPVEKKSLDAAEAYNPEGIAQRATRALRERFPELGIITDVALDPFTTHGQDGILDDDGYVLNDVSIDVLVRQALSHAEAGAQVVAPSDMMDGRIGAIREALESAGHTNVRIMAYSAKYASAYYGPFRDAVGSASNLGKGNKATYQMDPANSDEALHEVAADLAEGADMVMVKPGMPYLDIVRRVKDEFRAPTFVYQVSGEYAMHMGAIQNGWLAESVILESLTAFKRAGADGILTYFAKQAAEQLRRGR
compound,measurement,setting,value
"O=C1Nc2ccc(S(=O)(=O)NCC(O)c3ccc([N+](=O)[O-])cc3)c3cccc1c23 (stereo not drawn) [morphlock-1, 2-oxo-1,2-dihydro-benzo(cd)indole-6-sulfonic acid[2-hydroxy-2-(4-nitro-phenyl)-ethyl]-amide]",IC50,"pea PBGS; 5 μg/ml pea PBGS and 10 mM magnesium, Krypton IR detection, read-out: apparent IC50, native PAGE",1 to 3 µM
same,IC50,"pea PBGS; 50 μg/ml (1.4 μM subunit) pea PBGS and 1 mM ALA, silver stain, read-out: apparent IC50, native PAGE",~100 µM
same,native PAGE screening: shift of oligomeric equilibrium,"pea PBGS; PBGS 1 mg/mL, 2 mM compound, 30 minutes at 37° C.",dramatically shift the oligomeric equilibrium to the hexamer
same,hexamer converted to octamer by ALA in the presence of morphlock-1,"pea PBGS; hexameric pea PBGS 1 mg/mL, 2 mM morphlock-1, 5 mM ALA",~50%
same,IC50,"pea PBGS; non-equilibrium conditions, 1 mg/ml (~28 μM subunits) pea PBGS, read-out: observed IC50 in native PAGE analyses",~500 µM
same,"effect on pea PBGS morpheein equilibrium, native PAGE","pea PBGS; pea PBGS 1 mg/mL, various concentrations of morphlock-1, 30 minutes at 37° C.",draws the pea PBGS morpheein equilibrium entirely to the hexamer in a dose dependent fashion
same,Coomassie and activity stained native PAGE: binding to hexameric assembly,"pea PBGS; pea PBGS 1 mg/ml, morphlock-1 at 2 mM",prevents the substrate mediated conversion of hexamer to octamer
same,"perturbation of the quaternary structure equilibrium, gel shift assay",V. cholerae PBGS,did not cause any perturbation of the quaternary structure equilibrium
same,effect on the protein concentration-dependent specific activity for human PBGS,human PBGS [1]; 5 μM morphlock-1,has no affect
same,inhibition of human PBGS activity,human PBGS [1]; midpoint of the protein concentration-dependent specific activity,does not inhibit human PBGS
same,effect on mobility of human PBGS on native PAGE gel,human PBGS [2],nor does it effect the mobility of human PBGS
same,"perturbation of the quaternary structure equilibrium, gel shift assay",P. aeruginosa PBGS,did not cause any perturbation of the quaternary structure equilibrium
